Experimental data as given in paper PMC2743263 (Nature chemical biology, 2009).

What was measured:
[1] = target: T1, cellular MTAN activity in V. cholerae N16961 (Vibrio cholerae serotype O1, UniProt Q9KPI8); type: cell-based; settings: cellular IC50 versus Ki*
T1 sequence (Q9KPI8 1-231): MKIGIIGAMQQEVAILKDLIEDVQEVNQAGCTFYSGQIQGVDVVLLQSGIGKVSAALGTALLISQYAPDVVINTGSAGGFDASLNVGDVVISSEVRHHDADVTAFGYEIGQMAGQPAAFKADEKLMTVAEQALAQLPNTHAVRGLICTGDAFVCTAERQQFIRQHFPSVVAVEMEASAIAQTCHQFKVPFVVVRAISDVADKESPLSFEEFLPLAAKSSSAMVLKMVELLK

[2] = system: autoinducer-2 production in V. cholerae N16961; assay: Autoinducer-2 production after prolonged incubation; type: cell-based, Vibrio cholerae; settings: V. cholerae N16961, LB, 26 generations, untreated 540-fold
E. coli O157:H7 = assay: Growth of E. coli; type: cell-based, Escherichia coli
V. cholerae N16961 = assay: Growth of V. cholerae; type: cell-based, Vibrio cholerae
[3] = system: autoinducer production by V. cholerae N16961; assay: microbe, parasite or virus in culture; settings: Vibrio cholerae, read-out: AI Inhibition IC50, BB170
[4] = system: autoinducer-2 production in E. coli O157:H7; assay: Autoinducer-2 production after prolonged incubation; type: cell-based, Escherichia coli; settings: E. coli O157:H7, LB, 26 generations, 1 μM; untreated 195-fold
E. coli MTAN (EcMTAN) = settings: read-out: dissociation constant; cited from earlier work
VcMTAN = target: T2, VcMTAN (Vibrio cholerae serotype O1, UniProt Q9KPI8); assay: VcMTAN substrate kinetics, loss of MTA at 274 nm; type: biochemical
T2 sequence (Q9KPI8 1-231): T1 sequence (Q9KPI8 1-231)

## CCCCSC[C@H]1CN(Cc2c[nH]c3c(N)ncnc23)C[C@@H]1O [BuT-DADMe-ImmA, 5′-butylthio-DADMe-ImmucillinA]
[1]
  increase above Ki* required to inhibit VcMTAN activity in the cell: 30 fold
[2]; 1 μM
  quorum sensing signal (light induction in BB170): 4.2 fold
[2]; 2.5 μM
  quorum sensing signal (light induction in BB170): 1.3 fold
E. coli O157:H7; E. coli O157:H7, 1 μM, static, 25 °C
  growth of cells in the biofilm assay: did not inhibit growth
E. coli O157:H7; E. coli O157:H7, 26 generations, 1 or 2.5 μM
  growth: remained uninhibited
E. coli O157:H7; E. coli O157:H7 and MTAN knockout strain, AB medium, up to 0.5 μM
  growth: no growth defects
V. cholerae N16961; V. cholerae N16961, 1 μM, static, 25 °C
  growth of cells in the biofilm assay: did not inhibit growth
V. cholerae N16961; V. cholerae N16961, 26 generations, 1 or 2.5 μM
  growth: remained uninhibited
V. cholerae N16961; overnight culture, concentrations up to 1 μM
  effect on cell growth (OD600): without affecting growth
[3]
  IC50: 1.4 ± 0.3 nM
[4]
  light induction in BB170: 1.4 fold

## CCSC[C@H]1CN(Cc2c[nH]c3c(N)ncnc23)C[C@@H]1O [EtT-DADMe-ImmA, 5′-ethylthio-DADMe-ImmucillinA]
[3]
  IC50: 11 ± 2 nM

## CSC[C@H]1CN(Cc2c[nH]c3c(N)ncnc23)C[C@@H]1O [MT-DADMe-ImmA, 5′-methylthio-DADMe-ImmucillinA]
[3]
  IC50: 0.94 ± 0.13 nM
E. coli MTAN (EcMTAN)
  Ki: 0.002 nM

## CSC[C@H]1O[C@@H](n2cnc3c(N)ncnc32)[C@H](O)[C@@H]1O [MTA, methylthioadenosine]
VcMTAN
  Km: 3 µM
  kcat: 2 s⁻¹
